Values joined by “and” are separate entries in the source; they are usually repeats but may differ in a detail not shown here. Equal entries are not always repeated. Active and inactive are the calls of the source.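 Rule for the calls: active = compounds giving half or more protection of infected cells from virus-caused growth loss, again on retest; inactive = the rest.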 Where a SMILES comes first, the peptide text is derived from it. The star is where a group is joined. OBn = c1ccc(CO*)cc1
System: CEM cells HIV-1 protection, formazan growth assay
Test: NCI AIDS Antiviral Assay
Conditions: for IC50: measured here: growth of uninfected CEM cells
In short: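 Human CEM cells, uninfected and HIV-1-infected, exposed to five drug concentrations; growth measured by soluble formazan assay and scored as percent protection from infection, with protecting compounds retested.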

Row | SMILES | EC50 | IC50 | outcome
1 | O=C(O)[C@@H]1CCS(=O)(=O)N1 | > 200 µM | > 200 µM | 
2 | CN1C(=O)/C(=C2\SC(=O)N(CNc3ccc(Br)cc3)C2=O)c2ccccc21 | > 200 µM | 15.5 µM | 
3 | CN(/N=C/c1ccc(Cl)c(Cl)c1)C1=NCCN1 | > 200 µM | 16.2 µM | 
4 | CCCCCCCCCCNc1nc(F)nc(Nc2cc3ccc(OC)cc3oc2=O)n1 | > 39.8 µM | 7.08 µM | 
5 | O=C(O)C1C2CC(C1C(=O)O)C1C2N1S(=O)(=O)c1ccccc1 (stereo unspecified) | > 741 µM | > 741 µM | 
6 | S=c1[nH]nc(C23CC4CC(CC(C4)C2)C3)n1-c1ccc(Cl)cc1 | > 200 µM | 23.4 µM | 
7 | CC(=O)c1ccc(Br)cc1NC1=CC(=O)c2ncccc2C1=O | > 200 µM | 4.68 µM | 
8 | CSCCC(NC(c1ccccc1)c1ccccc1)[P+](=O)O (stereo unspecified) | > 200 µM | > 200 µM | 
9 | C#CCOCn1cnc2ncnc(Cl)c21 | > 1120 µM | > 200 µM | 
10 | Cc1ccc(S(=O)(=O)N(CC(=O)O)c2c[nH]c(C(=O)O)c2)cc1 | > 200 µM | > 200 µM | 
11 | Cc1ccc(NC(=O)c2cnccn2)c(=O)o1 | > 200 µM | > 200 µM | 
12 | O=c1oc2ccccc2cc1P(=O)(O)O | > 200 µM | 8.91 µM | 
13 | CCCC(CCC(=O)O)(CCC(=O)O)[N+](=O)[O-] |  |  | inactive
14 | O=C1/C(=C/c2ccccc2)CCCC1CN1CCCCC1 (stereo unspecified) | > 200 µM | 0.676 µM | 
15 | O[C@]12C=C[C@H](CCCC1)O2 | > 200 µM | 50.1 µM | 
16 | COc1ccc(C(C)NNC(=O)c2ccncc2)cc1F (stereo unspecified) | > 200 µM | 112 µM | 
17 | Cc1c2ccc(Cl)cc2nc2ccc(OCCCCCCNC(=O)CCCN=C(N)N)cc12 | > 50.1 µM | 22.9 µM | 
18 | CCOC(=O)C1=NN(c2ccccc2)C(=O)/C1=C\n1ccc(=O)[nH]c1=S |  |  | inactive
19 | CCOC(=O)C1(C/C=C\CBr)CCCCCCCCCCC1=O (stereo unspecified) | > 200 µM | 0.933 µM | 
20 | O=C(O)CCCc1ccc([As](=O)(O)O)cc1[N+](=O)[O-] | > 200 µM | > 200 µM | 
21 | O=C(Cn1c2c(c3ccccc31)CCCC2)N1CCCC1 | > 200 µM | > 200 µM | 
22 | CCn1c(N)c(N=O)c(=O)n(C)c1=O | > 200 µM | > 200 µM | 

Row | SMILES | EC50 | IC50 | outcome
23 | O=c1oc2cc(O)ccc2c(O)c1C(c1ccccc1)c1c(O)c2ccc(O)cc2oc1=O | > 200 µM | 178 µM | 
24 | Cc1cc(C)nc(NS(=O)(=O)c2ccc(NNC(=O)c3cccc4c(=O)c5ccccc5[nH]c34)cc2)n1 | > 200 µM | 31.6 µM | 
25 | COC(=O)[C@H]1COC(=O)N1 | > 200 µM | > 200 µM | 
26 | C=CC1CN2CCC1CC2C(O)c1ccnc2ccc(OC)cc12 (stereo unspecified) | > 200 µM | > 100 µM | 
27 | CCSCCCCCCCCCCC(=O)OCC1OC(n2cc(C)c(=O)[nH]c2=O)CC1F (stereo unspecified) | 0.0132 µM | 0.2 µM | 
28 | Nc1nc(Cl)cc(NC2(CO)CCC2)n1 | > 200 µM | > 200 µM | 
29 | COc1ccc(C(O)/C(=N\NC(N)=S)c2nc3ccc([N+](=O)[O-])cc3[nH]c2=O)cc1OC (stereo unspecified) | > 288 µM | > 288 µM | 
30 | O=C1CCN2CCC(=O)c3cccc1c32 |  |  | inactive
31 | CCOC(=O)/C(=C/c1ccc(C(=O)OC)cc1)N(CC)CC | > 427 µM | 67.6 µM | 
32 | CC(O)C1CC1(CO)CNc1cc(Cl)nc(N)n1 (stereo unspecified) | > 200 µM | > 200 µM | 
33 | Cc1ccc(SCC(CF)OC(C)n2cnc3c(=O)[nH]c(N)nc32)cc1 (stereo unspecified) | > 200 µM | 74.1 µM | 
34 | CC(=O)NC(C(=O)N1CCCC1C(=O)OCc1ccccc1)C(C)C (stereo not drawn) (Ac-Val-Pro-OBn; configuration not given here) | > 200 µM | 112 µM | 
35 | O=C(O)c1cc(S(=O)(=O)O)c2cccnc2c1O | > 200 µM | > 200 µM | 
36 | CCCc1cc(=O)oc2c3c(cc(OC)c12)O[C@H](C)[C@H](C)[C@@H]3O | > 200 µM | 38.9 µM | 
37 | COc1ccc(OC)c(/C=C2\CCc3ccccc3C2=O)c1 | > 17.8 µM | 2.88 µM | 
38 | CC1OC([C@]2(C)O[C@@H]([C@@]3(C)OC=CC3=O)CC2=O)CC1=O (stereo partly specified) |  |  | inactive
39 | COC(=O)N1CC=CC2(CCOCc3ccccc3)CC[C@@](O)(c3ccccc3NC(=O)C(C)(C)C)C(=O)C12 (stereo partly specified) | > 35.5 µM | > 35.5 µM | 
40 | S=c1sc2c(Cl)nc(Cl)nc2n1-c1ccccc1 | > 31.6 µM | > 31.6 µM | 
41 | CC1=CC2C(=O)N(c3ccccc3)C(=O)C2CC1n1[nH]c(=O)n(Cc2ccccc2)c1=O (stereo unspecified) | > 302 µM | > 302 µM | 
42 | O=C1CNc2cc(N3CCCCC3)ccc2N1 | > 200 µM | 66.1 µM | 
43 | O=S(=O)(C1=CC(S(=O)(=O)c2ccccc2)CN(Cc2ccccc2)C1c1ccccc1)c1ccccc1 (stereo unspecified) |  |  | inactive
44 | Cn1cc(NC(=O)c2cc(NC(=O)CCCCCC(=O)Nc3cc(C(=O)Nc4cc(C(=O)NCCC(=N)N)n(C)c4)n(C)c3)cn2C)cc1C(=O)NCCC(=N)N | 53.7 µM | 67.6 µM | 

Row | SMILES | EC50 | IC50 | outcome
45 | CCN1CCOC(c2ccccc2)C1c1ccccc1 (stereo unspecified) | > 200 µM | 129 µM | 
46 | Clc1cccc(N2CCN(CCN3CCc4c([nH]c5ccccc45)C3c3cccnc3)CC2)c1 (stereo unspecified) | > 2.19 µM | > 2.19 µM | 
47 | COC1N(C2CC(F)C(CO)O2)C(=O)NC(=O)C1(C)I (stereo unspecified) | 0.00339 µM | 57.5 µM and 6.17 µM | active
48 | Cn1nc2c(c1N)Cc1c(nn(C)c1N)-c1ccccc1-2 | > 200 µM | 191 µM | 
49 | Brc1ccc(-c2[nH]c3ccccc3c2N=Nc2ccccc2)cc1 | > 200 µM | 13.5 µM | 
50 | CCC(=O)NCC1CCCN2CCCCC12 (stereo unspecified) | > 200 µM | > 200 µM | 
51 | Cc1ccc(Nc2cc(=O)[nH]c(=S)[nH]2)cc1 | > 200 µM | > 200 µM | 
52 | [O]=[Sb]([OH])([OH])[c]1ccc(Br)cc1 | > 200 µM | 35.5 µM | 
53 | N#C/C(=C\n1ccc(=O)[nH]c1=S)C(=O)c1ccc2ccccc2c1 | > 200 µM | 123 µM | 
54 | Cc1cccc(C)c1NC(=S)/N=C/C1=C(O)c2ccccc2C1=O | > 200 µM | 15.8 µM | 
55 | O=C1CC2(CCC(O)(c3ccco3)C(C(=O)c3ccco3)C2)C(=O)c2ccccc2N1 (stereo unspecified) | > 200 µM | > 200 µM | 
56 | CSc1ccc(NC(=S)NN(C)C)cc1 | > 200 µM | 93.3 µM | 
57 | O=C1c2cccc3cc([N+](=O)[O-])cc(c23)C(=O)N1CCCN1CCN(CCCNc2ccc3ncn4c5ccccc5c(=O)c2c34)CC1 | > 0.00501 µM | 0.0049 µM | 
58 | Cc1ccc2c(c1)P(=O)(O)c1cc(C)ccc1S2(=O)=O | > 200 µM | > 200 µM | 
59 | CN1C(=O)c2cccc3c([N+](=O)[O-])ccc(c23)C1=O | > 20.4 µM | 7.76 µM | 
60 | CC(C)CCCC(C)[C@H]1CC[C@H]2[C@@H]3CC[C@H]4C[C@@H](CCC=C(c5cc(Cl)c(OCc6ccc(B7OC(C)(C)C(C)(C)O7)cc6)c(C(=O)OCc6ccc(B7OC(C)(C)C(C)(C)O7)cc6)c5)c5cc(Cl)c(OCc6ccc(B7OC(C)(C)C(C)(C)O7)cc6)c(C(=O)OCc6ccc(B7OC(C)(C)C(C)(C)O7)cc6)c5)CC[C@]4(C)[C@H]3CC[C@]12C (stereo partly specified) | > 200 µM | > 200 µM | 
61 | CN(C)/N=C(/CC(O)(C(F)(F)F)C(F)(F)F)c1ccc([N+](=O)[O-])cc1 | > 200 µM | 31.6 µM | 
62 | CC(C)OP(=O)(OC(C)C)C(N(C)C)P(=O)(OC(C)C)OC(C)C.[CH3][Sn]([CH3])([Cl])[Cl] | > 302 µM | 17.4 µM | 
63 | COc1cc(C2c3cc4c(cc3OC3(OC)COC(=O)C23)OCO4)cc(OC)c1OC(C)=O (stereo unspecified) | > 100 µM | 0.562 µM | 
64 | Cc1ccc2nc3c(C)cc(=O)cc-3sc2c1 | > 77.6 µM | 50.1 µM | 
65 | COC(=O)/C(=C/c1ccc(OC)cc1)C(C(=O)O)=C1CCCCC1 | > 398 µM | 5.62 µM | 
66 | CCCCCCCCCC1CC(=O)OC23CCCC(=O)C12O3 (stereo unspecified) | > 32.4 µM | > 32.4 µM | 

Row | SMILES | EC50 | IC50 | outcome
67 | CCC1CCN=C(NS(=O)(=O)c2cc(C)c(Cl)cc2S)N1 (stereo unspecified) | > 200 µM | 39.8 µM | 
68 | CC1(C)CCCCCCCCCC2CC2CCC(C)(C)C1=O (stereo unspecified) | > 200 µM | > 100 µM | 
69 | COCc1c(CO)cnc(C)c1OC1OC(CO)C(O)C(O)C1O (stereo unspecified) | > 724 µM | > 724 µM | 
70 | CNC(=S)NNc1ncnc2c1c(-c1ccc(Cl)cc1)cn2-c1ccc(C)cc1 |  |  | inactive
71 | CN(/N=C/c1ccccn1)C1=NCCCN1 | > 200 µM | > 200 µM | 
72 | COc1cnc([C@H]2CCC3[C@@H]4CC=C5C[C@@H](OC(C)=O)CC[C@]5(C)C4CC[C@@]32C)s1 (stereo partly specified) | > 21.9 µM | > 21.9 µM | 
73 | O=C(CC(=O)C1=CNc2ccccc2S1)C(=O)Nc1ccc(Cl)cc1 | > 126 µM | > 126 µM | 
74 | O=C(O)c1cc(I)cc(I)c1O | > 646 µM | 107 µM | 
75 | CN1c2ccc(Cl)cc2C2(C(=O)NN)C(C(=O)NN)N(C3CCCCC3)C(=O)C12N (stereo unspecified) | > 87.1 µM | > 87.1 µM | 
76 | C[n+]1cn(-c2ccc([N+](=O)[O-])cn2)c2ccccc21 | > 200 µM | 170 µM | 
77 | CC(=O)Nc1ccccc1/C=C\c1ccccn1 | > 1050 µM | > 1050 µM | 
78 | C=CCOC(C)n1c(C)cc(=O)n(C(C)OCC=C)c1=O (stereo unspecified) | > 200 µM | > 200 µM | 
79 | COc1cc2ccc3c4ccccc4cnc3c2cc1OC | > 89.1 µM | > 89.1 µM | 
80 | O=C(O)C1(Cc2ccc3c(c2)CCC3)Cc2cc3c(cc2C1)CCC3 | > 200 µM | 35.5 µM | 
81 | Cc1ccnc(NC(NC(=O)c2ccccc2)(C(F)(F)F)C(F)(F)F)c1 |  |  | inactive
82 | C(=C\c1nc2ccccc2s1)/c1ccc2c(c1)OCO2 | > 6.76 µM | > 6.76 µM | 
83 | O=c1cnn(C2OC(CO)C(O)C2O)c(=S)[nH]1 (stereo unspecified) | > 2 µM | 0.182 µM | 
84 | Nc1ccc(SCc2ccc(C(=O)O)cc2)cc1 | > 28.2 µM | > 28.2 µM | 
85 | CCOC(=O)C1=NN(c2ccc(C)cc2)C2=CC(C)=NN(C)C(=S)N21 | > 200 µM | > 200 µM | 
86 | NC(CO)C(=O)NC(CO)C(=O)NC(Cc1ccc(O)cc1)C(=O)NC(CO)C(=O)NC(CO)C(=O)O (stereo unspecified) (H-SSYSS-OH; configuration not given here) | > 93.3 µM | > 93.3 µM | 
